Measurements: US20130197073A1, “HYPOCHOLESTEROLEMIC, ANTI-INFLAMMATORY AND ANTIEPILEPTIC NEUROPROTECTIVE COMPOUND” (NEURON BIOPHARMA, S.A., priority 2010, published 2013)

Tests used:
IL-1β = assay: LPS model of systemic shock in mice, plasma IL-1β; assay type: in vivo; conditions: two i.p. doses of 50 mg/kg; 2 hours post-LPS
Protocol: To that end an additional assay was carried out in which all the animals included were 12-week old male C57BL6 mice. The experiments were carried out strictly complying with the standard entitled Guidance on the Operation of Animals (Scientific Procedures, Act. 1986). The animals were subjected to their respective quarantine period and were treated with maximum precaution to minimize possible contaminations during treatments and handling.
The mice were split up into three experimental groups: control group (n=8); control+LPS group (n=16); NST0060+LPS group (n=16). The mice were i.p. administered two doses of 50 mg/kg of NST0060 (in its lactone form) spaced out 12 hours from one another. 0.5% methyl cellulose in physiological saline, which was administered to the mice in the control groups with the same administration regimen, was used as a vehicle. Peripheral systemic inflammation was induced one hour after the last treatment by means of a single i.p. injection of LPS at 8 mg/kg. Half the mice in which systemic shock was induced (8 animals from the control+LPS group and 8 animals from the NST0060+LPS group) were sacrificed 2 hours after the inoculation of the LPS. Blood was taken and plasma was obtained, and both were frozen. […] The concentration of the inflammatory cytokines TNFα and IL-1β was evaluated in the plasma obtained by means of ELISA.

[1] = PAMPA, 18 h, 100 μM, pH 7.4
Source text: To that end, the BBB was mimicked in an in vitro system that allowed evaluating the compound without using cells, and where the so-called PAMPA (Parallel Artificial Membrane Permeation Assay) was used, using a sandwich system considering the crossing of compounds by means of passive diffusion.
A mixture of marketed lipids derived from pig brain with a phospholipid composition very similar to that which forms the barrier and known as PBL (Porcine Polar Brain Lipid) was used to mimic the blood-brain barrier. This compound was stored at −20° C. dissolved in dodecane at 100 μg/ml in glass vials.
To that end, a 1/100 dilution of the compounds was performed, being the DMSO content in all cases 1%.
Five microliters of PBL at 20 μg/ml prepared from the frozen stock at 100 μg/mL were added in a 96-well filter plate, with a PVDF membrane and a pore size of 45 μm (MAIPN4550, Millipore). After 2 minutes, 300 μl of the phosphate buffer used to dilute the compounds were added. […] After that time, 100 μl from the wells of the donor plates and acceptor plates were transferred to a special 96-well plate for UV reading. […] The percentage of barrier crossing as well as the effective permeability (Pe) were calculated from the spectrophotometric data. […]
[Drug]acceptor=Absorbance of the acceptor well
[Drug]equilibrium=Absorbance of the mean of the basal wells/2 […]

[2] = target: T1, 3-hydroxy-3-methylglutaryl coenzyme A reductase (HMGR) (Homo sapiens, UniProt P04035); assay: Inhibition of HMGR enzyme activity in vitro, NADPH absorbance at 340 nm; assay type: biochemical; conditions: active forms (activated with 0.1 N NaOH); five independent assays in duplicate
T1 sequence (P04035 340-888 limits assumed): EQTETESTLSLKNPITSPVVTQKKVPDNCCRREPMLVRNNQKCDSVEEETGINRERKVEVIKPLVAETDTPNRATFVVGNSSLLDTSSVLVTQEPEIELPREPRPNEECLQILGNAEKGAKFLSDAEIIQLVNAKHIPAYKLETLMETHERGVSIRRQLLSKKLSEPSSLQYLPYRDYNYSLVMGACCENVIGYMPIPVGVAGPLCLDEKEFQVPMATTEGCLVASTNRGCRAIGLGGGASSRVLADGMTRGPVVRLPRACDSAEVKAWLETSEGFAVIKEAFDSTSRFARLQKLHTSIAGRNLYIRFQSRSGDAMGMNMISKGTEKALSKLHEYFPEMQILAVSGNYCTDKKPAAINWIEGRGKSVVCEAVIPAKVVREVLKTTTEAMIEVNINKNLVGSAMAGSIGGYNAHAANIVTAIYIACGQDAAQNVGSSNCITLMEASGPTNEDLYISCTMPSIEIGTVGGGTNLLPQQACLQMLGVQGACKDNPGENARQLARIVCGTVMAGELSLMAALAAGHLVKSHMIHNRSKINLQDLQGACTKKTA
Protocol: The assay was carried out in a 96-well plate, with a total reaction volume of 200 μl.

[3] = test system: human hepatocarcinoma line HepG2; assay: Intracellular total cholesterol levels in human hepatic cell line; assay type: cell-based; conditions: HepG2, active form, 20 hours in the absence of FBS
Protocol: To that end an assay was conducted which had the purpose of determining if compound NST0060 in its active form was capable of modifying total cholesterol levels in the human hepatocarcinoma line HepG2. […] To carry out this assay, the compounds were prepared at 10 mM in ultrapure water and were activated by means of 0.1 N NaOH for 12 hours at 4° C. The compounds were stored at −20° C. until they were used.
The HepG2 line was obtained from the American Type Culture Collection (ATCC). The cells maintained in passage were seeded in 96-well plates (4×10^4 cells/well) in MEM supplemented with 10% FBS, 2 mM L-glutamine, 1 mM sodium pyruvate, 0.1 mM non-essential amino acids and 0.05 mg/mL gentamicin. After 24 hours of the seeding, the cells were deprived of FBS for 8 hours. The cells were then incubated with the treatments at various concentrations for 20 hours. After the incubation period, the cells were washed with PBS and lysed with a phosphate buffer with 0.5% Triton X-100. The lysis was completed by means of a double freezing-thawing.
The total cholesterol was quantified by means of enzymatic and fluorometric techniques. […] The fluorescence intensity was determined at 530 nm of excitation and 580 nm of emission by means of a fluorometer. The results were standardized by amount of protein, which was determined by means of the BCA technique.

[4] = test system: human neuroblastoma SK-N-MC cells; assay: Protection against neuronal death induced by tunicamycin (endoplasmic reticulum stress), WST-1; assay type: cell-based; conditions: NST0060 at 4 μM; 24 μM tunicamycin, 22 hours; significant from 1 to 40 μM
Protocol: The assay was performed on human neuroblastoma SK-N-MC cells in culture, maintained as described in section 2.1.
The inhibition caused by compound NST0060 with respect to cell death caused by treatment with tunicamycin generating endoplasmic reticulum stress was analyzed. Tunicamycin is an inhibitor of protein N-glycosylation, causing abnormal protein folding in the endoplasmic reticulum, therefore said proteins are accumulated and cause stress, resulting in cell death. These cells, not exceeding 15 passages, were seeded on 96-well plates treated for adherent cells with a cell concentration of 5×10^4 cells/well; 3 wells of the plate were seeded for each assay condition.
After 24 hours of cell incubation (at 37° C. and 5% CO2), the cell treatments were performed with 100 μl of total volume for the following conditions: • Control: culture medium (medium) • Tunicamycin (TM): medium plus 24 μM tunicamycin, causing death of 50% of the cells. • TM plus NST0060: medium plus TM (24 μM) plus NST0060 at 1, 4, 10, 40 or 100 μM
The cells were incubated (at 37° C. and 5% CO2) with these treatments for 22 hours, after which time WST-1 reagent (Roche) was added. The WST-1 test is based on the measurement of metabolic activity (method described in section 2.1).

SMILES: CCCC(CCC)C(=O)O[C@H]1C[C@@H](C)C=C2C=C[C@H](C)[C@H](CC[C@@H]3C[C@@H](O)CC(=O)O3)[C@H]21 [NST0060, 2-propylpentanoic acid (1S,3R,7S,8S,8aR)-1,2,3,7,8,8a-hexahydro-3,7-dimethyl-8-[2-[(2R,4R)-tetrahydro-4-hydroxy-6-oxo-2H-pyran-2-yl]ethyl]-1-naphthalenyl ester]
- cytokine IL-1β plasma levels (IL-1β): statistically significant decrease in cytokine IL-18 plasma levels
- % BBB crossing [1]: 29.8 ± 2.4%
- IC50 [2]: 126 ± 34.6 nM
- reduction in total cholesterol in the cells [3]: reductions in total cholesterol in the cells similar to those exerted by simvastatin
- protection against cell death caused by TM [4]: 42%
